# In article PMC3206575 (The Journal of Cell Biology, 1999):
# Positions count from the first letter of the chain named.
# Columns and labels:
# [1] = biological target: T1, DRal (Drosophila Ral), GST-DRal (Drosophila melanogaster, UniProt P48555); assay: [3H]GDP binding to GST fusion protein
# T1 sequence (P48555 1-201): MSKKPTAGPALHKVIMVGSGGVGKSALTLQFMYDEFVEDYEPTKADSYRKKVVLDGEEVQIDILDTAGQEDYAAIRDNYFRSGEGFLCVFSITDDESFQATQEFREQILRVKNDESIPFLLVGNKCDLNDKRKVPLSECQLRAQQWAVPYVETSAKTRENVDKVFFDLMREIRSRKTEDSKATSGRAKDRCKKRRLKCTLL
# [2] = biological target: T2, DRal (Drosophila Ral), GST-DRal (Drosophila melanogaster, UniProt P48555, S25N); assay: [3H]GDP binding to GST fusion protein
# T2 sequence (P48555 1-201 S25N): T1 sequence (P48555 1-201) with S25N
# [3] = biological target: T3, DRal (Drosophila Ral), GST-DRal (Drosophila melanogaster, UniProt P48555, G20V); assay: [3H]GDP binding to GST fusion protein
# T3 sequence (P48555 1-201 G20V): T1 sequence (P48555 1-201) with G20V
# [4] = biological target: T3, DRal (Drosophila Ral), GST-DRal; assay: […]GTPγS binding to GST fusion protein
# [5] = biological target: T1, DRal (Drosophila Ral), GST-DRal; assay: […]GTPγS binding to GST fusion protein
# [6] = biological target: T2, DRal (Drosophila Ral), GST-DRal; assay: […]GTPγS binding to GST fusion protein
Kd [1],Kd [2],Kd [3],Kd [4],Kd [5],Kd [6],SMILES
14 nM,95.1 nM,8.4 nM,–,–,–,Nc1nc2c(ncn2[C@@H]2O[C@H](COP(=O)(O)OP(=O)(O)O)[C@@H](O)[C@H]2O)c(=O)[nH]1 [GDP]
–,–,–,38 nM,30.7 nM,406 nM,Nc1nc2c(ncn2[C@@H]2O[C@H](COP(=O)(O)OP(=O)(O)OP(O)(O)=S)[C@@H](O)[C@H]2O)c(=O)[nH]1 [GTPγS]
